# Data as given in patent US7674819B2 (Warner-Lambert Company LLC, priority 2005, dated 2010).
# Where two headings read alike, the source gives them in different places.
# Molecular target: T1, hAR (Homo sapiens, UniProt P10275)
# T1 sequence (P10275 1-920): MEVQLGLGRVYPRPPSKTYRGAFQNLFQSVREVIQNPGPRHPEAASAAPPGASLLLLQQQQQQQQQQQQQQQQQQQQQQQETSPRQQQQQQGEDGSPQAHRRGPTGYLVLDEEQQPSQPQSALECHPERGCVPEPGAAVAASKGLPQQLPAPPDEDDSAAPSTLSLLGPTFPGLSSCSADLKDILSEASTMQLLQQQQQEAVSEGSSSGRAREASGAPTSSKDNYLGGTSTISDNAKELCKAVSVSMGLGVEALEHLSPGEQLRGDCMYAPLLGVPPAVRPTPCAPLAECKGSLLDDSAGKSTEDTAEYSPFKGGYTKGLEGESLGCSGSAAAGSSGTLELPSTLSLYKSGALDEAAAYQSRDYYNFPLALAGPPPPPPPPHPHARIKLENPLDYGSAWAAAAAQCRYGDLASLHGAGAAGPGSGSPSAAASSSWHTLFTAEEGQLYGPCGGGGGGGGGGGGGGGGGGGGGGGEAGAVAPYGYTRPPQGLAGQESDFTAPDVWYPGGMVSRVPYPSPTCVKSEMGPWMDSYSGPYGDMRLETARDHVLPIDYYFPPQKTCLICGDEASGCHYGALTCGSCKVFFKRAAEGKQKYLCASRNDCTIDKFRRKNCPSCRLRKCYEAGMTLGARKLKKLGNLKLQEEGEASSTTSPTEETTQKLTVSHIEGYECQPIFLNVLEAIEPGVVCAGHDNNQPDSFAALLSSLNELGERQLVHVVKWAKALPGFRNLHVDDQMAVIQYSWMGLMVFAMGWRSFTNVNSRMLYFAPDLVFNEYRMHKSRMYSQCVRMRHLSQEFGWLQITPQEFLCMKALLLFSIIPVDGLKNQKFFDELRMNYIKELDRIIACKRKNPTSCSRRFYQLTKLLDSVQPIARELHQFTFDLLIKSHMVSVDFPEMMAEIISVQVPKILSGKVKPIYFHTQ
# Experiment: Competitive binding of 3H-DHT to baculovirus/Sf9 generated hAR extracts
# Details: one hour at 4° C., mean of multiple tests
# Protocol: The description below describes how the assay was carried out.
# Competitive binding analysis was performed on baculovirus/Sf9 generated hAR extracts in the presence or absence of different concentrations of test agent and a fixed concentration of ^3H-dihydrotestosterone (^3H-DHT) as tracer. This binding assay method is a modification of a protocol previously described (Liao S., et. al. J. Steroid Biochem. 20:11-17 1984). Briefly, progressively decreasing concentrations of compounds are incubated in the presence of hAR extract (Chang et al. P.N.A.S. Vol. 89, pp. […], 1992), hydroxylapatite, and 1 nM^3H-DHT for one hour at 4° C. Subsequently, the binding reactions are washed three times to completely remove excess unbound ^3H-DHT. hAR bound ^3H-DHT levels are determined in the presence of compounds (i.e. competitive binding) and compared to levels bound when no competitor is present (i.e. maximum binding). Compound binding affinity to the hAR is expressed as the concentration of compound at which one half of the maximum binding is inhibited.
# [1] = concentration at which one half of maximum binding of 1 nM 3H-DHT to hAR is inhibited, read-out: IC50
# [2] = IC50, concentration at which one half of maximum binding of 1 nM 3H-DHT to hAR is inhibited
smiles,measurement,setting,value
"CC1(C)CN(Cc2nc(-c3ccncc3)no2)C(=O)C1Oc1ccc(C#N)c(C(F)(F)F)c1 (stereo not shown) [Example 49, 4-[4,4-Dimethyl-2-oxo-1-(3-pyridin-4-yl-[1,2,4]oxadiazol-5-ylmethyl)-pyrrolidin-3-yloxy]-2-trifluoromethyl-benzonitrile]",IC50,[1],214 nM
"CCN1CC(C)(C)C(Oc2ccc(C#N)c(C(F)(F)F)c2)C1=O (stereo not shown) [Example 21, 4-(1-Ethyl-4,4-dimethyl-2-oxo-pyrrolidin-3-yloxy)-2-trifluoromethyl-benzonitrile]",IC50,[1],403 nM
"CC1(C)CN(Cc2ccc(S(C)(=O)=O)cc2)C(=O)C1Oc1ccc(C#N)c(C(F)(F)F)c1 (stereo not shown) [Example 44, 4-[1-(4-Methanesulfonyl-benzyl)-4,4-dimethyl-2-oxo-pyrrolidin-3-yloxy]-2-trifluoromethyl-benzonitrile]",IC50,[1],346 nM
"CC(C)S(=O)(=O)N1CC(C)(C)C(Oc2ccc(C#N)c(C(F)(F)F)c2)C1=O (stereo not shown) [Example 79, 4-[4,4-Dimethyl-2-oxo-1-(propane-2-sulfonyl)-pyrrolidin-3-yloxy]-2-trifluoromethyl-benzonitrile]",IC50,[1],305 nM
"COc1ccc(-c2nnc(C(C)N3CC(C)(C)C(Oc4ccc(C#N)c(C(F)(F)F)c4)C3=O)o2)cc1 (stereo not shown) [Example 135, 4-(1-{1-[5-(4-methoxy-phenyl)-[1,3,4]oxadiazol-2-yl]-ethyl}-4,4-dimethyl-2-oxo-pyrrolidin-3-yloxy)-2-trifluoromethyl-benzonitrile]",IC50,[2],44 nM
"Cc1nc(C)c(S(=O)(=O)N2CC(C)(C)C(Oc3ccc(C#N)c(C(F)(F)F)c3)C2=O)s1 (stereo not shown) [Example 89, 4-[1-(2,4-Dimethyl-thiazole-5-sulfonyl)-4,4-dimethyl-2-oxo-pyrrolidin-3-yloxy]-2-trifluoromethyl-benzonitrile]",IC50,[1],281 nM
"Cc1ccccc1-c1nnc(CN2CC(C)(C)C(Oc3ccc(C#N)c(C(F)(F)F)c3)C2=O)o1 (stereo not shown) [Example 111, 4-[4,4-Dimethyl-2-oxo-1-(5-o-tolyl-[1,3,4]oxadiazol-2-ylmethyl)-pyrrolidin-3-yloxy]-2-trifluoromethyl-benzonitrile]",IC50,[1],239 nM
"CC(c1nnc(-c2ccc(O)cc2O)o1)N1CC(C)(C)C(Oc2ccc(C#N)c(C(F)(F)F)c2)C1=O (stereo not shown) [Example 132, 4-(1-{1-[5-(2,4-dihydroxy-phenyl)-[1,3,4]oxadiazol-2-yl]-ethyl}-4,4-dimethyl-2-oxo-pyrrolidin-3-yloxy)-2-trifluoromethyl-benzonitrile]",IC50,[2],52 nM
"COc1cc(OC2C(=O)N(S(C)(=O)=O)CC2(C)C)ccc1C#N (stereo not shown) [Example 100D, 4-(1-Methanesulfonyl-4,4-dimethyl-2-oxo-pyrrolidin-3-yloxy)-2-methoxy-benzonitrile]",IC50,[1],555 nM
"CC1(C)CN(Cc2cccc(C(F)(F)F)c2)C(=O)C1Oc1ccc(C#N)c(C(F)(F)F)c1 (stereo not shown) [Example 34, 4-[4,4-Dimethyl-2-oxo-1-(3-trifluoromethyl-benzyl)-pyrrolidin-3-yloxy]-2-trifluoromethyl-benzonitrile]",IC50,[1],437 nM
"CC1(C)CN(Cc2ccc(-n3cncn3)cc2)C(=O)C1Oc1ccc(C#N)c(C(F)(F)F)c1 (stereo not shown) [Example 62, 4-[4,4-Dimethyl-2-oxo-1-(4-[1,2,4]triazol-1-yl-benzyl)-pyrrolidin-3-yloxy]-2-trifluoromethyl-benzonitrile]",IC50,[1],293 nM
"CC1(C)CN(Cc2ccc(SC(F)(F)F)cc2)C(=O)C1Oc1ccc(C#N)c(C(F)(F)F)c1 (stereo not shown) [Example 36, 4-[4,4-Dimethyl-2-oxo-1-(4-trifluoromethylsulfanyl-benzyl)-pyrrolidin-3-yloxy]-2-trifluoromethyl-benzonitrile]",IC50,[1],484 nM
"CC1(C)CN(S(=O)(=O)c2ccccc2C#N)C(=O)C1Oc1ccc(C#N)c(C(F)(F)F)c1 (stereo not shown) [Example 91, 4-[1-(2-Cyano-benzenesulfonyl)-4,4-dimethyl-2-oxo-pyrrolidin-3-yloxy]-2-trifluoromethyl-benzonitrile]",IC50,[1],508 nM
